The source of these data is patent US20250136576A1, “Heterocyclic Compounds and Uses Thereof” (ACEA Therapeutics, Inc., priority 2021, published 2025).

The first experiment has as its system KM12-luc cells. Kind of experiment: Cell proliferation and growth inhibition assay (CCK-8) in KM12-luc. Format: cell-based. The settings on record: KM12-Luc, 72 h, KM12-luc cells, treated with test compounds for 72 hrs, CCK-8 viability; read-out: NTRK IC50 in KM12-luc. On the procedure:
MV-4-11 and H1975 cells were obtained from the American Type Culture Collection and KM12-luc cells were obtained from JCRB Cell Bank. All cell lines were maintained at 37° C. with 5% C02, in media supplemented with 10% fetal bovine serum and penicillin (100 units/mL) and streptomycin (100 μg/mL). MV-4-11 cells were maintained in Iscove's Modified Dubecco's Medium, H1975 cells were cultured with RPMI 1640 media, and KM12-luc cells were maintained in Dulbecco's Modification of Eagle's Medium. CCK-8 reagent was obtained from Yeasen. Cell proliferation was assessed by CCK-8 assay (Yeasen) per the manufacturer's instructions. […] Cell viability was assayed by incubating the cells with CCK-8 reagent for 1-4 hrs. Absorbance was measured at OD450 using the Beckman DTX880. The data was calculated using GraphPad Prism version 6.01. The IC50 values were fitted using a non-linear regression model with a sigmoidal dose response.
As a reminder, the IC50 is the concentration that inhibits the measured activity by half. As to `CN(C)CCN(C)c1ccc(Nc2nc(Oc3cccc(N)c3)c3cc[nH]c3n2)cc1` [Compound 184, N^1-(4-(3-aminophenoxy)-7H-pyrrolo[2,3-d]pyrimidin-2-yl)-N^4-(2-(dimethylamino)ethyl)-N^4-methylbenzene-1,4-diamine], the half-inhibitory concentration (IC50) was 407 nM. Same read-out and setting: the figure for `COc1cccc2c(-c3nc(Nc4ccc(N(CCN(C)C)C(C)=O)c(NC(C)=O)c4)ncc3C(F)(F)F)c[nH]c12` [Compound 379, N-(2-acetamido-4-((4-(7-methoxy-1H-indol-3-yl)-5-(trifluoromethyl)pyrimidin-2-yl)amino)phenyl)-N-(2-(dimethylamino)ethyl)acetamide] is 149 nM. Same read-out and setting: the same measure for `CCN(CCN(C)C)c1ccc(Nc2nc(-c3cn(C)c4ccccc34)c3cc[nH]c3n2)cc1NC(=O)C(C)C` [Compound 212d, N-(2-((2-(dimethylamino)ethyl)(ethyl)amino)-5-((4-(1-methyl-1H-indol-3-yl)-7H-pyrrolo[2,3-d]pyrimidin-2-yl)amino)phenyl)isobutyramide]: 93.1 nM. Still for that read-out and setting: the figure for `CCN(CCN(C)C)c1ccc(Nc2ncc(C(F)(F)F)c(-c3c[nH]c4cc(F)ccc34)n2)cc1N` [Compound 332, N^1-(2-(dimethylamino)ethyl)-N^1-ethyl-N^4-(4-(6-fluoro-1H-indol-3-yl)-5-(trifluoromethyl)pyrimidin-2-yl)benzene-1,2,4-triamine] is 127 nM; for `CN(C)CCN(C)c1ccc(Nc2ncc(C(F)(F)F)c(-c3cn(C)c4ccc(F)cc34)n2)cc1NCC(F)(F)F` [Compound 327, N^1-(2-(dimethylamino)ethyl)-N^4-(4-(5-fluoro-1-methyl-1H-indol-3-yl)-5-(trifluoromethyl)pyrimidin-2-yl)-N^1-methyl-N^2-(2,2,2-trifluoroethyl)benzene-1,2,4-triamine] it is 260 nM; for `CC(=O)Nc1cc(Nc2ncc(C(F)(F)F)c(-c3cn(C)c4ccccc34)n2)cc(F)c1N(C)CCN(C)C` [Compound 308, N-(2-((2-(dimethylamino)ethyl)(methyl)amino)-3-fluoro-5-((4-(1-methyl-1H-indol-3-yl)-5-(trifluoromethyl)pyrimidin-2-yl)amino)phenyl)acetamide] it is 139 nM. Turning to `CC(=O)Nc1cccc(Oc2nc(Nc3ccc(N(C)CCN(C)C)c(F)c3)nc3[nH]ccc23)c1` [Compound 181a, N-(3-((2-((4-((2-(dimethylamino)ethyl)(methyl)amino)-3-fluorophenyl)amino)-7H-pyrrolo[2,3-d]pyrimidin-4-yl)oxy)phenyl)acetamide], the IC50 was over 10000 nM.

Consider `CC(=O)Nc1cc(Nc2ncc(C(F)(F)F)c(-c3cn(C)c4cc(F)ccc34)n2)ccc1N(C)CCN(C)C` [Compound 333, N-(2-((2-(dimethylamino)ethyl)(methyl)amino)-5-((4-(6-fluoro-1-methyl-1H-indol-3-yl)-5-(trifluoromethyl)pyrimidin-2-yl)amino)phenyl)acetamide], for which the concentration for half-maximal inhibition (IC50) was found to be 28.5 nM. The same measure, in the same setting: the figure for `CCN(CCN(C)C)c1c(F)cc(Nc2nc(-c3cn(C)c4ccccc34)c3ccn(C)c3n2)cc1NC(C)=O` [Compound 195b, N-(2-((2-(dimethylamino)ethyl)(ethyl)amino)-3-fluoro-5-((7-methyl-4-(1-methyl-1H-indol-3-yl)-7H-pyrrolo[2,3-d]pyrimidin-2-yl)amino)phenyl)acetamide] is 561 nM; for `COc1cccc2c(-c3ncc(C(F)(F)F)c(Nc4ccc(N5CC[C@H](N(C)C)C5)c(NC(C)=O)c4)n3)c[nH]c12` [Compound S-382b, (S)—N-(2-(3-(dimethylamino)pyrrolidin-1-yl)-5-((2-(7-methoxy-1H-indol-3-yl)-5-(trifluoromethyl)pyrimidin-4-yl)amino)phenyl)acetamide] it is 349 nM. Still for that read-out and setting: the figure for `CC(=O)Nc1cc(Nc2ncc(Cl)c(-c3cn(C)c4ccccc34)n2)ccc1N(C)C(=O)CCN(C)C` [Compound 404, N-(2-acetamido-4-((5-chloro-4-(1-methyl-1H-indol-3-yl)pyrimidin-2-yl)amino)phenyl)-3-(dimethylamino)-N-methylpropanamide] is 26.5 nM; for `CCC(=O)Nc1cc(Nc2nc(-c3c[nH]c4cc(F)ccc34)ncc2C(F)(F)F)ccc1N(CC)CCN(C)C` [Compound 330b, N-(2-((2-(dimethylamino)ethyl)(ethyl)amino)-5-((2-(6-fluoro-1H-indol-3-yl)-5-(trifluoromethyl)pyrimidin-4-yl)amino)phenyl)propionamide] it is over 3330 nM. The same measure, in the same setting: the same measure for `CC(=O)Nc1cc(Nc2ncc(F)c(-c3c[nH]c4cc(F)ccc34)n2)ccc1N(C)CCN(C)C` [Compound 266, N-(2-((2-(dimethylamino)ethyl)(methyl)amino)-5-((5-fluoro-4-(6-fluoro-1H-indol-3-yl)pyrimidin-2-yl)amino)phenyl)acetamide]: 764 nM; for `CC(=O)Nc1cc(Nc2nc(-c3cn(C)c4ccc(C)cc34)c3cc[nH]c3n2)ccc1N(C)CCN(C)C` [Compound 244, N-(5-((4-(1,5-dimethyl-1H-indol-3-yl)-7H-pyrrolo[2,3-d]pyrimidin-2-yl)amino)-2-((2-(dimethylamino)ethyl)(methyl)amino)phenyl)acetamide]: 348 nM.

With `CNc1cccc(Oc2nc(Nc3ccc(N4CCN(C)CC4)c(F)c3)nc3[nH]ccc23)c1` [Compound 177, N-(3-fluoro-4-(4-methylpiperazin-1-yl)phenyl)-4-(3-(methylamino)phenoxy)-7H-pyrrolo[2,3-d]pyrimidin-2-amine], the IC50 stood at 132 nM. Regarding `CN(C)CCN(C)c1ccc(C(=O)Nc2c[nH]c3cnc(Nc4cc(F)cc(F)c4)nc23)c(NC2CCOCC2)c1` [Compound 493, N-(2-((3,5-difluorophenyl)amino)-5H-pyrrolo[3,2-d]pyrimidin-7-yl)-4-((2-(dimethylamino)ethyl)(methyl)amino)-2-((tetrahydro-2H-pyran-4-yl)amino)benzamide], the IC50 was over 10000 nM.

Regarding `CC(=O)Nc1cc(Nc2ncc(F)c(-c3cn(C)c4ccc(C)cc34)n2)ccc1N(C)CCN(C)C` [Compound 270, N-(5-((4-(1,5-dimethyl-1H-indol-3-yl)-5-fluoropyrimidin-2-yl)amino)-2-((2-(dimethylamino)ethyl)(methyl)amino)phenyl)acetamide], the IC50 turned out to be 1600 nM.

For the molecule `COc1cccc2c(-c3nc(Nc4ccc5c(c4)nc(C)n5CCN(C)C)ncc3C(F)(F)F)c[nH]c12` [Compound 380, 1-(2-(dimethylamino)ethyl)-N-(4-(7-methoxy-1H-indol-3-yl)-5-(trifluoromethyl)pyrimidin-2-yl)-2-methyl-1H-benzo[d]imidazol-5-amine], the IC50 stood at 50.5 nM. Same read-out and setting: the figure for `Cc1nc2cc(Nc3ncc(C(F)(F)F)c(-c4c[nH]c5c(F)cccc45)n3)ccc2n1CCN(C)C` [Compound 342, 1-(2-(dimethylamino)ethyl)-N-(4-(7-fluoro-1H-indol-3-yl)-5-(trifluoromethyl)pyrimidin-2-yl)-2-methyl-1H-benzo[d]imidazol-5-amine] is 24.6 nM; for `CC(=O)Nc1cc(Nc2nc(-c3cn(C)c4ccccc34)c3occc3n2)ccc1N(C)CCN(C)C` [Compound 256a, N-(2-((2-(dimethylamino)ethyl)(methyl)amino)-5-((4-(1-methyl-1H-indol-3-yl)furo[3,2-d]pyrimidin-2-yl)amino)phenyl)acetamide] it is 447 nM. Still for that read-out and setting: the same measure for `Cc1cccc2c(-c3nc(Nc4ccc(N5CC[C@@H](N(C)C)C5)c(N)c4)ncc3Cl)c[nH]c12` [Compound R-425, (R)—N^1-(5-chloro-4-(7-methyl-1H-indol-3-yl)pyrimidin-2-yl)-4-(3-(dimethylamino)pyrrolidin-1-yl)benzene-1,3-diamine]: 11.3 nM. Still for that read-out and setting: the same measure for `COc1cnc(Nc2ccc(N(C)CCN(C)C)c(NCC(F)(F)F)c2)nc1-c1cn(C)c2ccccc12` [Compound 276, N^1-(2-(dimethylamino)ethyl)-N^4-(5-methoxy-4-(1-methyl-1H-indol-3-yl)pyrimidin-2-yl)-N^1-methyl-N^2-(2,2,2-trifluoroethyl)benzene-1,2,4-triamine]: 679 nM. Take `Cc1cccc2c(-c3nc(Nc4ccc5c(c4)nc(C)n5CCN(C)C)ncc3C(F)(F)F)c[nH]c12` [Compound 364, 1-(2-(dimethylamino)ethyl)-2-methyl-N-(4-(7-methyl-1H-indol-3-yl)-5-(trifluoromethyl)pyrimidin-2-yl)-1H-benzo[d]imidazol-5-amine]: the IC50 was determined as 20.1 nM. `CC(=O)Nc1cc(Nc2ncc(Cl)c(-c3cn(C)c4ccccc34)n2)cc(F)c1N(C)CCN(C)C` [Compound 396, N-(5-((5-chloro-4-(1-methyl-1H-indol-3-yl)pyrimidin-2-yl)amino)-2-((2-(dimethylamino)ethyl)(methyl)amino)-3-fluorophenyl)acetamide]: the IC50 is 80.3 nM.

Staying with this experiment, now noted: KM12-Luc, 72 h, read-out: NTRK IC50 in KM12-luc.
For `CC(=O)Nc1cc(Nc2nc(-c3cn(C)c4ccccc34)c3cc[nH]c3n2)ccc1N(C)CCN(C)C` [Compound 205a, N-(2-((2-(dimethylamino)ethyl)(methyl)amino)-5-((4-(1-methyl-1H-indol-3-yl)-7H-pyrrolo[2,3-d]pyrimidin-2-yl)amino)phenyl)acetamide], the IC50 was 37 nM.

For `CC(=O)Nc1cc(Nc2nc(-c3cn(C)c4ccc(F)cc34)c3cc[nH]c3n2)ccc1N(C)CCN(C)C` [Compound 227a, N-(2-((2-(dimethylamino)ethyl)(methyl)amino)-5-((4-(5-fluoro-1-methyl-1H-indol-3-yl)-7H-pyrrolo[2,3-d]pyrimidin-2-yl)amino)phenyl)acetamide], the concentration for half-maximal inhibition (IC50) is 578 nM.
